Consider 8 molecules from patent US5516789A, “Lipoxygenase and cyclooxygenase inhibiting compounds” (Abbott Laboratories, priority 1995, dated 1996).

One assay has as its system TXB2. In words: Dog ex vivo A23187-stimulated blood after oral dosing, inhibition of TXB2. To be noted: beagle dog, oral dose of 2 mg/kg, 8 hours after dosing; blood incubated with 50 μM A23187. The format is in vivo. From the text: (§1) Inhibition of both leukotriene formation and prostaglandin formation was also shown in the dog. This was done using the method described by Carter et al. (Carter, G. W., Young, P. R., Albert, D. H., Bouska, J., Dyer, R., Bell, R. L., Summers, J. B. and Brooks, D. W.: J. Pharmacol. Exp. Ther. 256: 929-937, 1991.). Compound was suspended in 0.2% methylcellulose with a Potter-Elvehjem homogenizer equipped with a Teflon-coated pestle and administered orally to beagle dogs (Marshall Farms, North Rose, N.Y.) All animals were fasted overnight before dosing but allowed water ad libitum. Heparinized blood samples were obtained before and at various times after compound administration. Aliquots of blood were incubated at 37° with 50 μM with calcium ionophore, A23187. After 30 minutes, the blood was placed in an ice bath and analyzed for LTB4 and TXB2 as described above.

Assay [1] deals with biosynthesis of leukotrienes. In words: Rat pleural inflammation model (A23187), inhibition of leukotriene biosynthesis in vivo. To be noted: oral dose of 10 mg/kg. The protocol: (§2) Pleural inflammation was induced in male rats following the method of Rao et. al., Life Sci, 1993, 53, 52. Animals were dosed with experimental compounds in 0.2% HPMC one hour prior to the intrapleural injection of the calcium ionophore, A23187. The rats were lightly anesthetized with Penthrane (Abbott Laboratories) and injected intrapleurally with 0.5 ml of 2% ethanol in injectable saline (Abbott Laboratories) containing 20 μg of A23187 (Cal BioChem-Novabiochem). Thirty minutes later the animals were euthanized and the pleural cavities lavaged with ice cold saline. The lavage fluid was then added to ice cold methanol (final methanol concentration 30%) to lyse cells and precipitate protein.
(§3) Cyclooxygenase activity of whole blood was determined by analysis of these samples for TXB2 by EIA (Advanced Magnetics, Cambridge, Mass.).

Another assay has as its system LTB4. In words: Dog ex vivo A23187-stimulated blood after oral dosing, inhibition of LTB4. The format is in vivo. Conditions: beagle dog, oral dose of 2 mg/kg, 8 hours after dosing; blood incubated with 50 μM A23187.
Excerpt: as §1

Assay [2] has as its system biosynthesis of prostaglandins. In words: Rat pleural inflammation model (A23187), inhibition of prostaglandin biosynthesis in vivo. To be noted: oral dose of 10 mg/kg, TXB2 by EIA. As to the method: as §2, §3
Assay [3] relates to LTB4 formation in human whole blood. In words: Calcium ionophore (A23187)-induced LTB4 biosynthesis in human whole blood. The format is cell-based. To be noted: human heparinized whole blood; 15 min preincubation at 37° C.; A23187 50.0 μM, 30 min; read-out: IC50, in vitro inhibitory potency against stimulated LTB4 formation in human whole blood. The protocol:
Inhibition of leukotriene biosynthesis was evaluated in an assay, involving calcium ionophore-induced LTB4 biosynthesis in human whole blood. Human heparinized whole blood was preincubated with test compounds or vehicle for 15 min at 37° C. followed by calcium ionophore A23187 challenge (final concentration of 50.0 μM) and the reaction terminated after 30 min by adding two volumes of methanol. The methanol extract was analyzed for LTB4 using a commercially available immunoassay.

Assay [4] concerns biosynthesis of leukotrienes. Nature of the assay: Rat peritoneal anaphylaxis model, inhibition of leukotriene biosynthesis in vivo after oral administration. Conditions: oral gavage one hour prior to antigen challenge, @ 15 mg/kg. The protocol: Inhibition of the biosynthesis of leukotrienes in vivo after oral administration of compound was determined using a rat peritoneal anaphylaxis model similar to that described by Young and coworkers (Young, P. R.; Bell, R. L.; Lanai, C.; Summers, J. B.; Brooks, D. W.; Carter, G. W. (1991): Inhibition of leukotriene biosynthesis in the rat peritoneal cavity. Eur. J. Pharmacol 1991, 205, 259-266). In this model rats were injected intraperitoneally (ip) with rabbit antibody to bovine serum albumin (BSA) and three hours later injected ip with BSA to induce an antigen-antibody response. Rats were sacrificed 15 minutes after this challenge and the peritoneal fluids were collected and analyzed for leukotriene levels. Test compounds were administered by gavage one hour prior to the antigen challenge. To measure immunoreactive leukotriene levels in the various lavage fluids, the samples were diluted 1:3 (v/v) with the EIA buffer containing 100 mM phosphate, 1.5 mM sodium azide, 400 mM sodium chloride, 0.1 mM sodium EDTA and 0.1% BSA, pH 7.4. Methanol, at a final concentration of 22%, was included in the assay standards to compensate for the amount in the biological samples. EIA reagents for cysteinyl leukotrienes determination were purchased from, Cayman Chemical Co., Ann Arbor, Mich. The LTE4 tracer was prepared in-house. The immunoassays for LTE4 were then conducted as recommended by the manufacturer with the exception that volumes were adjusted to accommodate automation using a Cetus Propette (Cetus Corp., San Francisco, Calif.). The EIA was conducted in 96 well microtiter plates (Nunc Roskilde, Denmark) and optical density measured using a microplate reader (Vmax, Molecular Devices Corp., Menlo Park, Calif.). Percent inhibition values were determined by comparing the treatment group to the mean of the control group.

In general, IC50 refers to the midpoint of a concentration-inhibition curve.

For `COc1ccc2cc([C@H](C)C(=O)ON(C(N)=O)[C@H](C)C#Cc3ccc(Cc4ccc(F)cc4)s3)ccc2c1` [Example 21, N-[(S)-2-(6-methoxynaphth-2-yl)propionyloxy]-N-[3-(5-(4-fluorophenylmethyl)thien-2-yl)-(R)-1-methyl-2-propynyl]urea], the “inhibition of TXB2” value with TXB2 amounted to 47%. For the same molecule, the “inhibition of the biosynthesis of leukotrienes” value in assay [1] is given as 71%. In the assay with LTB4, the “inhibition of LTB4” value is listed as 54%. For the same molecule, in assay [2], the “inhibition of the biosynthesis of prostaglandins” value turned out to be 68%. Take `COc1ccc2cc([C@H](C)C(=O)ON(C(N)=O)C(C)c3ccoc3)ccc2c1` (stereo partly drawn) [Example 1, N-[(S)-2-(6-methoxynaphth-2-yl)propionyloxy]-N-[1-(fur-3-yl)ethyl]urea]: the IC50 in assay [3] came to 4000 nM. As to `CC(C)Cc1ccc(C(C)C(=O)ON(C(N)=O)C(C)c2cc3ccccc3s2)cc1` (centres unmarked) [Example 3, N-[2-(4-(2-methylpropyl)phenyl)propionyloxy]-N -[1-(benzo[b]thien-2-yl)ethyl]urea], the concentration for half-maximal inhibition (IC50) in assay [3] is 5800 nM. Take `CC(C)Cc1ccc(C(C)C(=O)ON(C(N)=O)C(C)c2ccoc2)cc1` (centres unmarked) [Example 20, N-[2-(4-(2-methylpropyl)phenyl)propionyloxy]-N-[1-(fur-3-yl)ethyl]urea]: the IC50 in assay [3] was 9900 nM. Besides, the “% Inhibition (in vivo, leukotriene biosynthesis)” value (shortened to “% Inhibition”) in assay [4] was 43%. Regarding `COc1ccc2cc([C@H](C)C(=O)ON(C(N)=O)C(C)C#Cc3ccc(Oc4ccc(F)cc4)o3)ccc2c1` (stereo partly drawn) [Example 18, N-[(S)-2-(6-methoxynaphth-2-yl)propionyloxy]-N-[3-(5-(4-fluorophenoxy)fur-2-yl)-1-methyl-2-propynyl]urea], the half-maximal inhibitory concentration (IC50) in assay [3] is 1300 nM. The “% Inhibition” value in assay [4] is reported as 40%.

On to `CC(=O)Oc1ccccc1C(=O)ON(C(N)=O)C(C)C#Cc1ccc(Oc2ccc(F)cc2)o1` (centres unmarked) [Example 37, N-[2-(acetoxybenzoyl)oxy]-N-[3-(5-(4-fluorophenoxy)fur-2-yl)-1-methyl-2-propynyl]urea], for which the IC50 in assay [3] worked out at 160 nM. On to `COc1ccc2c(c1)c(CC(=O)ON(C(N)=O)C(C)c1cc3ccccc3s1)c(C)n2C(=O)c1ccc(Cl)cc1` (centres unmarked) [Example 4, N-[2-(N-(4-chlorobenzoyl)-5-methoxy-2-methyl-[1H]-indol-3-yl)acetoxy]-N-[1-(benzo[b]thien-2-yl)ethyl] urea], for which, in assay [3], the IC50 came out at 1800 nM. As for `CC(C)Cc1ccc(C(C)C(=O)ON(C(N)=O)C(C)C#Cc2ccc(Oc3ccc(F)cc3)o2)cc1` (centres unmarked) [Example 19, N-[2-(4-(2-methylpropyl)phenyl)propionyloxy]-N-[3-(5-(4-fluorophenoxy)fur-2-yl)-1-methyl-2-propynyl]urea], the IC50 in assay [3] turned out to be 1200 nM. Moreover, the “% Inhibition” value in assay [4] came to 41%.
